Key:
Format in all cases: cell-based
mPanx1 [1] = target: T1, mPanx1 (Mus musculus, UniProt Q9JIP4); assay: whole-cell patch clamp, CHO cells transfected with mPanx1, single dose […]; settings: read-out: I% ^a
T1 construct: gene Panx1

mPanx1 [2] = target: T1, mPanx1; assay: whole-cell patch clamp, CHO cells transfected with mPanx1, dose-response (IC50 low micromolar, number not given); settings: read-out: I% ^a
mPanx1 [3] = target: T1, mPanx1; assay: whole-cell patch clamp, CHO cells transfected with mPanx1, dose-response

T1 sequence (Q9JIP4 whole entry): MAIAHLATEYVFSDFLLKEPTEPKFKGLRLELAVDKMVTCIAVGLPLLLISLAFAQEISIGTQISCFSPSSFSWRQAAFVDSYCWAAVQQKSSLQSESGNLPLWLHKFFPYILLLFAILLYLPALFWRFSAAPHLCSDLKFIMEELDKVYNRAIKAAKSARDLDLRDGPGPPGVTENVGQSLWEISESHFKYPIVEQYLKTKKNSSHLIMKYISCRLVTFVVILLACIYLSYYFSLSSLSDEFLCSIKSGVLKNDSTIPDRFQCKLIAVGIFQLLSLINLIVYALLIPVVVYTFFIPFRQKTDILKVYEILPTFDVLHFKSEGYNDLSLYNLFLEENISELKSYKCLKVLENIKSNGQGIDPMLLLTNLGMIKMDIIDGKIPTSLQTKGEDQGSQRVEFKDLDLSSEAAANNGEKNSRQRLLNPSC

inhibition at 50 µM (mPanx1 [1]) [%] | SMILES | further results
48.8 ± 5.9 | NS(=O)(=O)c1ccc2c(c1)c(=O)c(C(=O)O)cn2Cc1ccc(C(=O)O)cc1 [5b, 1-(4-Carboxybenzyl)-4-oxo-6-sulfamoyl-1,4-dihydroquinoline-3-carboxylic acid] | 
54.6 ± 6 | CCN(CC)S(=O)(=O)c1ccc2c(c1)c(=O)c(C(=O)O)cn2Cc1ccccc1 [12a, 1-Benzyl-6-(N,N-diethylsulfamoyl)-4-oxo-1,4-dihydroquinoline-3-carboxylic acid] | 
73.2 ± 11.9 | CCN(CC)S(=O)(=O)c1ccc2c(c1)c(=O)c(C(=O)O)cn2Cc1ccc(C(=O)O)cc1 [12b, 1-(4-Carboxybenzyl)-6-(N,N-diethylsulfamoyl)-4-oxo-1,4-dihydroquinoline-3-carboxylic acid] | 
49.5 ± 6 | CCN(CC)S(=O)(=O)c1ccc2c(c1)c(=O)c(C(=O)O)cn2Cc1ccc(S(N)(=O)=O)cc1 [12c, 6-(N,N-Diethylsulfamoyl)-4-oxo-1-(4-sulfamoylbenzyl)-1,4-dihydroquinoline-3-carboxylic acid] | 
 | CCCN(CCC)S(=O)(=O)c1ccc2c(c1)c(=O)c(C(=O)O)cn2Cc1ccc(C(=O)O)cc1 [12e, 1-(4-Carboxybenzyl)-6-(N,N-dipropylsulfamoyl)-4-oxo-1,4-dihydroquinoline-3-carboxylic acid] | inhibition at 50 µM (mPanx1 [2]): 84.8 ± 4.4%
 | CCCN(CCC)S(=O)(=O)c1ccc2c(c1)c(=O)c(C(=O)O)cn2Cc1ccc(S(N)(=O)=O)cc1 [12f, 6-(N,N-Dipropylsulfamoyl)-4-oxo-1-(4-sulfamoylbenzyl)-1,4-dihydroquinoline-3-carboxylic acid] | IC50 (mPanx1 [3]): 2700 nM
57.2 ± 8.5 | CCCN(CCC)S(=O)(=O)c1ccc2c(c1)c(=O)c(C(=O)O)cn2CCc1ccccc1 [12g, 6-(N,N-Dipropylsulfamoyl)-4-oxo-1-phenethyl-1,4-dihydroquinoline-3-carboxylic acid] | 
 | O=C(O)c1ccc(CN(Cc2ccc(C(=O)O)cc2)S(=O)(=O)c2ccc3c(c2)c(=O)c(C(=O)O)cn3Cc2ccc(C(=O)O)cc2)cc1 [compound 7, 4,4′-{[((3-carboxy-1-(4-carboxybenzyl)-4-oxo-1,4-dihydroquinolin-6-yl)sulfonyl)azanediyl]bis(methylene)} dibenzoic acid] | inhibition at 50 µM (mPanx1 [2]): 79.7 ± 7.2%
